Test results taken from patent US20080103105A1, “HMG CoA REDUCTASE MEDIATED MODULATION OF NEUROGENESIS” (BrainCells, Inc., priority 2006, published 2008).
Where two headings read alike, the source gives them in different places. Each block holds one molecule with its values, some of them ahead of it.

Columns and labels:
mGluR2 = mGluR2 (Homo sapiens, UniProt Q14416); details: read-out: IC50 against mGluR2; cited from earlier work
[1] = system: Group I and Group III receptors; details: at sub-mM concentrations; cited from earlier work
mGluR3 = mGluR3 (Homo sapiens, UniProt Q14832); details: read-out: IC50 against mGluR3; cited from earlier work
human mGlu2 = human mGlu2 (Homo sapiens, UniProt Q14416); details: low nanomolar range; read-out: EC50 against human mGlu2 receptors in vitro; cited from earlier work
human mGlu3 = human mGlu3 (Homo sapiens, UniProt Q14832); details: low nanomolar range; read-out: EC50 against human mGlu3 receptors in vitro; cited from earlier work
[2] = system: KA, AMPA, and NMDA iGlu receptors; details: cited from earlier work
[3] = system: Human neural stem cells (hNSCs); assay: Neuronal differentiation of human neural stem cells (TUJ-1 staining); format: cell-based; details: for EC50: agent alone
Description: In one non-limiting example neurogenesis, a neurogenic response, and neurodifferentiation are all measured in an in vitro assay as follows. Human neural stem cells (hNSCs) are isolated and grown in monolayer culture, plated, treated with varying concentrations of a first neurogenic agent, or a combination of a first neurogenic agent with one or more additional neurogenic agents (test compound), and stained with TUJ-1 antibody to identify neurons and/or GFAP to identify astrocytes, as described in PCT Application No. US06/026677. Mitogen-free test media with a positive control is used for neuronal differentiation, and basal media without growth factors serves as a negative control. Neurogenesis is determined, for example, by measuring the proliferation and/or differentiation of the hNSCs in the presence of varying concentrations of test compound compared to the absence of the test compound (negative control). A neurogenic response is measured, for example, in a similar manner to neurogenesis, except that astrogenesis is also measured and the ratio of neurogenesis to astrogenesis is determined to measure the neurogenic response. Neurodifferentiation is measured, for example, by detecting neurodifferentiation specific expression markers which methods are known in the art.
(§1) Human neural stem cells (hNSCs) were isolated and grown in monolayer culture, plated, treated with varying concentrations of atorvastatin (test compound), and stained with TUJ-1 antibody, as described in U.S. Provisional Application No. 60/697,905 (U.S. Patent Publication 2007/0015138). Mitogen-free test media with a positive control for neuronal differentiation was used along with basal media without growth factors as a negative control.
as §1, with “in the presence or absence of buspirone,” for “(test compound),”, “antibody for the detection of neuronal differentiation or GFAP antibody for the detection of astrocyte differentiation,” for “antibody,”
as §1, with “in the presence or absence of ribavirin,” for “(test compound),”, “antibody for the detection of neuronal differentiation or GFAP antibody for the detection of astrocyte differentiation,” for “antibody,”
as §1, with “in the presence or absence of tacrine,” for “(test compound),”, “antibody for the detection of neuronal differentiation or GFAP antibody for the detection of astrocyte differentiation,” for “antibody,”
Human neural stem cells (hNSCs) were isolated and grown in monolayer culture, plated, treated with varying concentrations of atorvastatin in the presence or absence of azakenpaullone, and stained with TUJ-1 antibody for the detection of neuronal differentiation or GFAP antibody for the detection of astrocyte differentiation, as described in U.S. Provisional Application No. 60/697,905 (U.S. Patent Publication 2007/0015138). […]

[4] = system: BrdU positive cells within the granule cell layer of the dentate gyrus
Method: Male F344 rats were dosed 1× per day for 28-days with vehicle (n=12 per dose group, p.o.), 5.0 mg/kg fluoxetine (n=12 per dose group, p.o.), 15.0 mg/kg fluoxetine (n=12 per dose group, p.o.), 10.0 mg/kg atorvastatin (n=12 per dose group, p.o.) or the combination of fluoxetine (5.0 mg/kg, p.o.)+atorvastatin (10.0 mg/kg, p.o.).
Male F344 rats were dosed 1× per day for 21-days with 0 (vehicle only), 5.0 mg/kg fluoxetine (n=12 per dose group, p.o.), 15.0 mg/kg fluoxetine (n=12 per dose group, p.o.), 10.0 mg/kg atorvastatin (n=12 per dose group, p.o.) or the combination of fluoxetine (5.0 mg/kg, p.o.)+atorvastatin (10.0 mg/kg, p.o.). BrdU was administered once daily between days 9 and 14 (100 mg/kg/day, i.p., n=12 per dose group). […] Data are presented as percent change in BrdU positive cells per cubic mm dentate gyrus. […] Data are presented as the percentage of cells colabeled for BrdU and the mature neuronal marker NeuN within the dentate gyrus.

[5] = Homo sapiens, Neural stem cell, maximum fixed to 120% for all conditions, read-out: EC50, neuronal differentiation, agent alone, maximum percent of positive control fixed to a common 120%
[6] = Homo sapiens, Neural stem cell, percentage of neuronal positive control, basal media values subtracted, read-out: EC50, neuronal differentiation, agent used alone

human mGlu2, sequence (Q14416 19-872): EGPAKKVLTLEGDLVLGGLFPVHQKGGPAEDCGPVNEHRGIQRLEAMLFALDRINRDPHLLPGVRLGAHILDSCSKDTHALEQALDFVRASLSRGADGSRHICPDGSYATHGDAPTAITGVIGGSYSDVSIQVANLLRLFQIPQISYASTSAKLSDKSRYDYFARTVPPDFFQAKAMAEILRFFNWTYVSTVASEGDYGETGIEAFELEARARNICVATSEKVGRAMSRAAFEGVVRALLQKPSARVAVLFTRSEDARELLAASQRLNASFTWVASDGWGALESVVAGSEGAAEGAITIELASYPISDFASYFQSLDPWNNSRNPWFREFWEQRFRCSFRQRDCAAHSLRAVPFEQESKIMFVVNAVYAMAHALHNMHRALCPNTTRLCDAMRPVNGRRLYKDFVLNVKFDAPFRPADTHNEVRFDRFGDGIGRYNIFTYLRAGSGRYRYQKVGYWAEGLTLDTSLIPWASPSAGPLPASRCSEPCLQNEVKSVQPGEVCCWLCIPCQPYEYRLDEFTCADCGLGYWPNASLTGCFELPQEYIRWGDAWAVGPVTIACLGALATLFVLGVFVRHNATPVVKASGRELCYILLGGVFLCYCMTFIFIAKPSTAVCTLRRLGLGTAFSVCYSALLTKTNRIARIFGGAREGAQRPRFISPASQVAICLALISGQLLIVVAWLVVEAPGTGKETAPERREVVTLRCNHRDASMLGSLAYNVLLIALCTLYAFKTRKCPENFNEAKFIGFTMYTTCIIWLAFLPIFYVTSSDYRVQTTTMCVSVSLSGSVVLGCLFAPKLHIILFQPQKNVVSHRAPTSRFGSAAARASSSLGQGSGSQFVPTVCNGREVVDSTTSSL
mGluR2, sequence (Q14416 19-872): as above
mGluR3, sequence (Q14832 23-879): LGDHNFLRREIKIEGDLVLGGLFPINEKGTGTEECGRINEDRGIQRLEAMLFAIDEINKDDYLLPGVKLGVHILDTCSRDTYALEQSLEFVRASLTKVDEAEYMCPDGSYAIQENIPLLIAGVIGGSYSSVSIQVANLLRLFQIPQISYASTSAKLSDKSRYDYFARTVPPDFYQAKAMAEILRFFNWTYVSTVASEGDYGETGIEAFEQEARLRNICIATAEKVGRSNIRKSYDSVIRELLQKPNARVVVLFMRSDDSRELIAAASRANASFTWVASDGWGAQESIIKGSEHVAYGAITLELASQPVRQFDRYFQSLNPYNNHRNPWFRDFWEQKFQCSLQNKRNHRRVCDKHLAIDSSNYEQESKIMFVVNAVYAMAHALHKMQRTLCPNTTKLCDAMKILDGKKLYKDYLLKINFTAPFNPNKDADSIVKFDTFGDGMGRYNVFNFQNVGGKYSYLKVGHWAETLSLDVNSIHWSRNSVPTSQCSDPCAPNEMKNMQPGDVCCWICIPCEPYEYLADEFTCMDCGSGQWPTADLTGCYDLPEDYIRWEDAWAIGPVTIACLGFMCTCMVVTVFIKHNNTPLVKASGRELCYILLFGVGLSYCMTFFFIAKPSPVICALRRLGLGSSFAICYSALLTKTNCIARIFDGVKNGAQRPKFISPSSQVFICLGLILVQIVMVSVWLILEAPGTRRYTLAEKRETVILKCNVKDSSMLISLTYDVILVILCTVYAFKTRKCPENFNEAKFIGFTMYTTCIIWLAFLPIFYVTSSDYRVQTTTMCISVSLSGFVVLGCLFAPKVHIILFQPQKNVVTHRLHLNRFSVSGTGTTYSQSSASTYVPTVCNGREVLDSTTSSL
human mGlu3, sequence (Q14832 23-879): as above

Compound: NC1(C(=O)O)CCc2cc(P(=O)(O)O)ccc21 (racemic) [APICA, (RS)-1-amino-5-phosphonoindan-1-carboxylic acid]
IC50 (mGluR2): ~30 µM
activity against Group I or Group III receptors [1]: no appreciable activity
IC50 (mGluR3): ~30 µM

Compound: NC1(C(=O)O)COC2C(C(=O)O)C21 (single isomer, unassigned; (-)) [LY379268, (−)-2-Oxa-4-aminobicyclohexane-4,6-dicarboxylic acid]
EC50 (human mGlu2): < 0.01 µM
EC50 (human mGlu3): < 0.01 µM

Compound: N[C@](CC1c2ccccc2Oc2ccccc21)(C(=O)O)[C@H]1C[C@@H]1C(=O)O [LY341495, (2S)-2-amino-2-(1S,2S-2-carboxycycloprop-1-yl)-3-(xanth-9-yl) propanoic acid]
activity against KA, AMPA, and NMDA iGlu receptors [2]: substantially inactive

Compound: Clc1ccc2c(c1)N=C(N1CCNCC1)c1ccccc1N2 [N-desmethylclozapine]
neurogenic activity in assays as disclosed herein [3]: highly neurogenic

Compound: Nc1c2c(nc3ccccc13)CCCC2 [tacrine]
EC50 [3, 6]: 7.4 µM

More lines, main results first:

EC50 [3, 5]: 0.004 µM
EC50 ([3]; percentage of neuronal positive control, basal media values subtracted, read-out: EC50, neuronal differentiation, agent used alone): 0.0031 µM
Compound: CC(C)c1c(C(=O)Nc2ccccc2)c(-c2ccccc2)c(-c2ccc(F)cc2)n1CC[C@@H](O)C[C@@H](O)CC(=O)O [atorvastatin]
neuronal differentiation, result in words ([3]; percent of neuronal positive control, combination relative to either agent alone): promoted neuronal differentiation
number of BrdU positive cells (percent change per cubic mm dentate gyrus) ([4]; 10.0 mg/kg atorvastatin p.o. 1× per day): significantly increased
number of new neurons within the granule cell layer of the dentate gyrus ([4]; atorvastatin 10.0 mg/kg p.o. alone or with fluoxetine 5.0 mg/kg p.o., 1× per day): significant increase

EC50 [3, 5]: 0.33 µM
EC50 [3, 6]: 1.1 µM
Compound: O=C1Cc2c([nH]c3ccc(Br)cc23)-c2ncccc2N1 [azakenpaullone]
maximum percent of positive control neuronal differentiation ([3]; addition of azakenpaullone): greater than 100%

EC50 [3, 6]: 5.8 µM
Compound: O=C1CC2(CCCC2)CC(=O)N1CCCCN1CCN(c2ncccn2)CC1 [buspirone]

EC50 [3, 6]: 4.8 µM
Compound: Nc1nc2ncc(CNc3ccc(C(=O)N[C@@H](CCC(=O)O)C(=O)O)cc3)nc2c(=O)[nH]1 [folic acid]

EC50 [3, 6]: 3.8 µM
Compound: NC(=O)c1ncn([C@@H]2O[C@H](CO)[C@@H](O)[C@H]2O)n1 [ribavirin]

EC50 [3, 6]: 4.5 µM
Compound: NCCc1c[nH]c2ccc(O)cc12 [serotonin]
